Here are results for two compounds from patent US20130172271A1, “Pharmaceutical Spray Drying” (priority 2012, published 2013).

Series [1] can be described thus: Chromatographic purity / impurities of spray dried vancomycin powders (Vancomycin B). Format: physicochemical. As to the method: (§1) Batches for stability testing were made using the spray dried formulation vancomycin HCl (15% by weight), PEG-400 (3% by weight), mannitol (3% by weight) in WFI, with the API sourced from Abbott Laboratories (North Chicago, Ill.). Spray dried batches were stored at 25° C./60% Relative Humidity (RH), 30° C./60% RH, and 40° C./75% RH for three months. The stability data on moisture by Karl Fischer, pH (of the reconstituted solution), reconstitution time and chromatographic purity are presented in Table 7. The chromatographic purity was examined using the analytical HPLC method described in the current USP (United States Pharmacopeia) monograph for vancomycin. The test results for the API lot used to make the spray dried product were also listed for comparison.
Three vancomycin formulations were prepared in WFI or citrate buffer. The solutions were spray dried as described above. Resultant powders were tested along with the vancomycin HCl API for impurities, reconstitution time and moisture as shown in Table 8.

Series [2] in a line: Stability testing of spray dried vancomycin batch stored at 25° C./60% RH, 30° C./60% RH and 40° C./75% RH. The settings on record: Initial. Type of series: physicochemical. The procedure:
as §1
The chromatographic purity of vancomycin B for all samples tested in this study were within USP specifications. All samples were stored at the accelerated conditions of 40° C./75% RH for 3 months and met USP criterion for vancomycin B by chromatographic purity (NLT 80% vancomycin B).

Where a name gives a salt, the structure may show the parent alone.

As for `CN[C@H](CC(C)C)C(=O)N[C@H]1C(=O)N[C@@H](CC(N)=O)C(=O)N[C@H]2C(=O)N[C@H]3C(=O)N[C@H](C(=O)N[C@H](C(=O)O)c4cc(O)cc(O)c4-c4cc3ccc4O)[C@H](O)c3ccc(c(Cl)c3)Oc3cc2cc(c3O[C@@H]2O[C@H](CO)[C@@H](O)[C@H](O)[C@H]2O[C@H]2C[C@](C)(N)[C@H](O)[C@H](C)O2)Oc2ccc(cc2Cl)[C@H]1O` [API, vancomycin HCl], in series [1] (Table 8), the N-Demethylvancomycin was 0.6% and the “Vancomycin B” value was 94.9%. Further, the Other in series [1] (Table 8, other impurities) is on record as 4.5%.
With `CN[C@H](CC(C)C)C(=O)N[C@H]1C(=O)N[C@@H](CC(N)=O)C(=O)N[C@H]2C(=O)N[C@H]3C(=O)N[C@H](C(=O)N[C@H](C(=O)O)c4cc(O)cc(O)c4-c4cc3ccc4O)[C@H](O)c3ccc(c(Cl)c3)Oc3cc2cc(c3O[C@@H]2O[C@H](CO)[C@@H](O)[C@H](O)[C@H]2O[C@H]2C[C@](C)(N)[C@H](O)[C@H](C)O2)Oc2ccc(cc2Cl)[C@H]1O` [API Lot 09097619, vancomycin HCl], the “Vancomycin B” value in series [2] is reported as 91.9%.
